Structures are written as SMILES.

This assay addresses lysozyme (Gallus gallus, UniProt P00698). As to the kind of experiment: Estimation of relative inhibition of lysozyme (Micrococcus lysodeikticus substrate, absorbance at 450 nm). The format is biochemical. Conditions: for ligand concentration at maximum inhibition: ligand concentration at which the maximum inhibition is achieved; for Imax: maximum relative inhibition of lysozyme. From the text:
This example describes the estimation of inhibition of lysozyme by monomers, oligomers and macromer. I50 denotes the concentration of the ligand containing NAG at which 50% of the highest achievable inhibition is achieved. Imax denotes the ligand concentration at which the maximum inhibition is achieved.
Micrococcus lysodeikticus is a substrate for the enzyme lysozyme. Relative binding of macromers was estimated by using a procedure reported by Neuberger and Wilson (1967).
1.5% w/v stock solutions of macromer was prepared in 0.0066 M phosphate buffer pH 6.2 containing 0.0154 m sodium chloride and 0.008 M sodium azide. One milliliter of stock solution containing different ligand concentration was mixed with 1.6 ml of 78 μg/ml of Micrococcus lysodeikticus in a 3-ml capacity glass cuvette. The mixture was incubated for 5 minutes at 20° C. To this mixture 0.1 ml of lysozyme (27 μg/ml) was added and mixed thoroughly. The relative absorbance at 450 nm (Δ450) was recorded for 30 seconds. A blank reading without the ligand was noted and the change in the absorbance per second was calculated. Then relative inhibition was calculated.

lysozyme, sequence (P00698 19-147): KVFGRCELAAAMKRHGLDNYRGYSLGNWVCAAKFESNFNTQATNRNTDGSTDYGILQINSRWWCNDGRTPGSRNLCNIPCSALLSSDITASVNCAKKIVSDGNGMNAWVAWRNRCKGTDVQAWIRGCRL

On to `C=CC(=O)OC[C@H]1OC(O)[C@H](NC(C)=O)[C@@H](O)[C@@H]1O` (some centres unmarked) [Ac. NAG, Acryloyl N-Acetyl Glucosamine], for which the “ligand concentration at maximum inhibition” value is listed as 14.81 mM and the Imax is given as 50.00. Moreover, the IC50 (ligand concentration at which 50% of the highest achievable inhibition is achieved, pH 6.2, 20° C., read-out: I50) was 14.8 mM.
`CC(=O)N[C@H]1C(O)O[C@H](CO)[C@@H](O)[C@@H]1O` (some centres unmarked) [NAG, N-Acetyl Glucosamine, reference compound]: the “ligand concentration at maximum inhibition” value is 92.50 mM and the Imax is 55.29.

The record behind these values is US6822064B1, “Polymerizable macromers and preparation thereof” (Council of Scientific and Industrial Research, priority 2003, dated 2004).
